± gives the expanded uncertainty stated by the source.
Settings: 101.33 kPa, Liquid, Vibrating tube method

mass density (273.15 K) [kg/m3] | mass density (278.15 K) [kg/m3] | mass density (283.15 K) [kg/m3] | mass density (288.15 K) [kg/m3] | mass density (293.15 K) [kg/m3] | mass density (298.15 K) [kg/m3] | mass density (303.15 K) [kg/m3] | mass density (308.15 K) [kg/m3] | mass density (313.15 K) [kg/m3] | mass density (318.15 K) [kg/m3] | mass density (323.15 K) [kg/m3] | mass density (328.15 K) [kg/m3] | mass density (333.15 K) [kg/m3] | mass density (338.15 K) [kg/m3] | mass density (343.15 K) [kg/m3] | mass density (348.15 K) [kg/m3] | mass density (353.15 K) [kg/m3] | mass density (358.15 K) [kg/m3] | mass density (363.15 K) [kg/m3] | SMILES
732.83 ± 0.25 | 729.01 ± 0.25 | 725.16 ± 0.25 | 721.32 ± 0.25 | 717.45 ± 0.25 | 713.58 ± 0.25 | 709.69 ± 0.25 | 705.78 ± 0.25 | 701.86 ± 0.25 | 697.91 ± 0.25 | 693.95 ± 0.25 | 689.97 ± 0.25 | 685.97 ± 0.25 | 681.94 ± 0.25 | 677.88 ± 0.25 | 673.91 ± 0.25 | 669.71 ± 0.26 | 665.58 ± 0.26 | 661.14 ± 0.26 | CCCCCCCCC [nonane]
718.25 ± 0.25 | 714.31 ± 0.25 | 710.34 ± 0.25 | 706.35 ± 0.25 | 702.35 ± 0.25 | 698.34 ± 0.25 | 694.3 ± 0.25 | 690.24 ± 0.25 | 686.17 ± 0.25 | 682.06 ± 0.25 | 677.94 ± 0.25 | 673.79 ± 0.25 | 669.61 ± 0.26 | 665.4 ± 0.26 | 661.16 ± 0.26 | 656.88 ± 0.26 | 652.57 ± 0.26 | 648.23 ± 0.26 | 643.83 ± 0.26 | CCCCCCCC [octane]
